The NIST ThermoML archive (doi:10.1021/je060339m)

Conditions: Liquid

CCCCOC(C)=O [butyl ethanoate]
mass density [kg/m3]
Conditions	298.15 K	303.15 K	308.15 K	313.15 K	318.15 K	323.15 K	328.15 K	333.15 K	338.15 K
100 kPa	875.7	870.4	865.1	859.9	854.9	849.7	844.6	839.6	834.5
1000 kPa	876.3	871.1	865.9	860.8	855.7	851	845.7	840.7	835.6
2000 kPa	877.2	872	866.9	861.7	856.7	852	846.8	841.8	836.7
3000 kPa	878	872.9	867.8	862.7	857.8	853	847.9	842.9	837.9
3100 kPa	878.1	873	867.8	862.7	857.9	853.1	848	842.9	838
5000 kPa	879.9	874.7	869.6	864.6	859.6	854.6	849.7	844.9	840.1
10000 kPa	883.8	878.8	873.9	869	864.2	859.4	854.6	850	845.5
15000 kPa	887.6	882.8	878	873.2	868.5	863.9	859.3	854.8	850.1
20000 kPa	891.3	886.5	881.9	877.2	872.6	868.1	863.6	859.3	855
25000 kPa	894.9	890.2	885.6	881	876.5	872.3	867.8	863.6	859.5
30000 kPa	899.1	894.4	890	885.6	881.3	877.3	872.5	868.6	864.6
35000 kPa	903.7	899.1	894.8	890.5	886.3	882.4	877.7	873.9	–
